Here are results for ten compounds from ChEMBL document CHEMBL1201862, “PubChem BioAssay data set” (2004).

Activity calls are given as the source filed them.

In general, IC50 refers to the concentration at which inhibition is half-maximal. The AC50 is the concentration giving half of the maximal activity seen.

One data set deals with T1, Phosphomannomutase 2 (Homo sapiens, UniProt O15305).
T1 sequence (O15305 whole entry): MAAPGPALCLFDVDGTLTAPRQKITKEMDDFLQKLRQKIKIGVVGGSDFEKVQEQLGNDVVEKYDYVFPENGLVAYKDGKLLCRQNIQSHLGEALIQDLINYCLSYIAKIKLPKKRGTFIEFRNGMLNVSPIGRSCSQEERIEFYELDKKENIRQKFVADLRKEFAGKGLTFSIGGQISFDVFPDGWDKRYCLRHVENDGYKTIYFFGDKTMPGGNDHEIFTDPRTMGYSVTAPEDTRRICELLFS
Nature of the data set: Counter screen SAR assay for PMM2 inhibitors via a fluorescence intensity assay. [Related pubchem assays (depositor defined):AID1545, AID1574]. Background: A counterscreen serves to expose hits that act by an unwanted route or on another target.

In data set [1] the target is T2, Mannose-6-phosphate isomerase (Homo sapiens, UniProt P34949).
T2 sequence (P34949 whole entry): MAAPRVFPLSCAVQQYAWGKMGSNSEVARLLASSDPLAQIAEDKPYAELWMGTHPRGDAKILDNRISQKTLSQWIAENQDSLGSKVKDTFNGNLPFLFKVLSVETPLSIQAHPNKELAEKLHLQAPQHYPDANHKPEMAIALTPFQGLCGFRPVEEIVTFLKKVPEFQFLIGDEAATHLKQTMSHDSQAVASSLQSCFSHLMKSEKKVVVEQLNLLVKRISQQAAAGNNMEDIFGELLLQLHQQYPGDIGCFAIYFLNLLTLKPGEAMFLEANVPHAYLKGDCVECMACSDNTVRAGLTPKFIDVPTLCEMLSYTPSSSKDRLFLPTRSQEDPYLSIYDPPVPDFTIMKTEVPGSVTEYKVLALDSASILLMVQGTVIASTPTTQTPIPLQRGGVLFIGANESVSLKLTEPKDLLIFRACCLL
Nature of the data set: PMI enzyme inhibitors, confirmation, biochemical, fluorescence intensity (AID 1535).

Another data set addresses T3, Leucine aminopeptidase (Plasmodium falciparum 3D7, UniProt Q8IL11).
T3 sequence (Q8IL11 whole entry): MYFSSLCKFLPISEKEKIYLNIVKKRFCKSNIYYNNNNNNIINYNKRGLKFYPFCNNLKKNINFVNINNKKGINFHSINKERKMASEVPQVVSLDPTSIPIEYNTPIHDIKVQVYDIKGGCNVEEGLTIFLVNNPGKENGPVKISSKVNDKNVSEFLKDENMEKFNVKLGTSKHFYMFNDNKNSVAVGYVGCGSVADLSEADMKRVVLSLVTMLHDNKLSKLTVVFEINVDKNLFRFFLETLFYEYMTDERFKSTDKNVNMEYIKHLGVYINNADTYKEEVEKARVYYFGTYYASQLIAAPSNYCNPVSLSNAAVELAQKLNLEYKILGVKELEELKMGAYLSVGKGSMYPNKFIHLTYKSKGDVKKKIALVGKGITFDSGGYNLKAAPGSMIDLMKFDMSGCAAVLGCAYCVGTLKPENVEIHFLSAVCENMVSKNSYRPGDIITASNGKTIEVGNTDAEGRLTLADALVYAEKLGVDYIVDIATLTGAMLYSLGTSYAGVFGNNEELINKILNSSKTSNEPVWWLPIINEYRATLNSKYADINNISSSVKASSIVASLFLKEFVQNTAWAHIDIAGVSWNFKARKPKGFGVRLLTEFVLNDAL
Description: P. falciparum M17LAP inhibitors, primary screen, biochemical, fluorogenic H-Leu-NHMec substrate, 1536-well (AID 1619). Type of data set: functional.

In data set [2] the target is T2, Mannose-6-phosphate isomerase. Description: inhibitors of human PMI, primary screen, biochemical, fluorescence intensity, coupled assay (AID 1209).
The target in data set [3] is T4, High affinity choline transporter 1 (Homo sapiens, UniProt Q9GZV3).
T4 sequence (Q9GZV3 whole entry): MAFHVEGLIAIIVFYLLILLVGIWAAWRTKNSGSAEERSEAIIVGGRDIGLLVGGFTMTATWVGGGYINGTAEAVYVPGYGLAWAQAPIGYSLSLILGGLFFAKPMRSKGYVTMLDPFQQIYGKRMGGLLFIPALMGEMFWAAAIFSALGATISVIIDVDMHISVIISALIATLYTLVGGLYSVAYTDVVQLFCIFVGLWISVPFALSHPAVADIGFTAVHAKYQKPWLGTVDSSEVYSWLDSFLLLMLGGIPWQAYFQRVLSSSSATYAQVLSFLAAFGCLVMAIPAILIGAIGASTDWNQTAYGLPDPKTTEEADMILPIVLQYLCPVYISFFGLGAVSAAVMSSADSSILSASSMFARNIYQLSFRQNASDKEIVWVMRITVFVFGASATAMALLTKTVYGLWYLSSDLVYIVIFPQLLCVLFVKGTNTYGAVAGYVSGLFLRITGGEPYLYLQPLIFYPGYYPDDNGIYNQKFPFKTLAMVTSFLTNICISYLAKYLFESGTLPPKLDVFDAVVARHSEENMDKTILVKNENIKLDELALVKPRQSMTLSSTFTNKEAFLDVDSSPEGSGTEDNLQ
Description: CHT inhibitors, dose response, cell-based, 5-point CRC, membrane potential dye (AID 504840). The class given is functional.

A further data set relates to Escherichia coli. Nature of the data set: microbe, parasite or virus in culture.
In data set [4] the target is T5, Corticotropin-releasing factor receptor 2/Corticotropin-releasing factor-binding protein (Homo sapiens, UniProt P24387+Q13324).
T5 sequence (Q13324 whole entry): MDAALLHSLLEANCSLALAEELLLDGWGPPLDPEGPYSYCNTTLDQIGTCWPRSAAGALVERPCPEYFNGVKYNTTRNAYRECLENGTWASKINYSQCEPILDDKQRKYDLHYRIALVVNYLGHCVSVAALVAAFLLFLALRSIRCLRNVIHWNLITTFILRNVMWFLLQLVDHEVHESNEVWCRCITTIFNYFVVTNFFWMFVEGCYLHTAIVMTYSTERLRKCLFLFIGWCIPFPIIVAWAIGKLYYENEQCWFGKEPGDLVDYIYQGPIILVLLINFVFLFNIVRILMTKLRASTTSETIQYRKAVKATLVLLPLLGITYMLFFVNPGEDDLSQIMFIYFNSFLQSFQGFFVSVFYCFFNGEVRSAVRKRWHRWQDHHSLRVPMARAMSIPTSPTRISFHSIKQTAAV
T5 sequence (P24387 whole entry): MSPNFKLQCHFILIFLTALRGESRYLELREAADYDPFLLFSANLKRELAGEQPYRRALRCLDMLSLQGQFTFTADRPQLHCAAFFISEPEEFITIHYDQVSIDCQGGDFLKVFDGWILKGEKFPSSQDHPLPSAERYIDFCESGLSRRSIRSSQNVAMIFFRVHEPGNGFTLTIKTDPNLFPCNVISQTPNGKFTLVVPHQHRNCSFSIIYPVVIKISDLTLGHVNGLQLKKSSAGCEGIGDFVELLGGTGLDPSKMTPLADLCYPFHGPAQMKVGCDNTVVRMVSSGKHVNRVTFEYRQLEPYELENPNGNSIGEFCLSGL
Description: activators of CRF receptor 2 with binding protein – uHTS hits, confirmation (AID 602473). The class given is functional. Particulars: read-out: EC50_Mean.

Data set [5] concerns the target UDP-galactopyranose mutase (Mycobacterium tuberculosis, UniProt P9WIQ1). Nature of the data set: Inhibitors of Mycobacterium tuberculosis UDP-galactopyranose mutase (UGM) enzyme Measured in Biochemical System Using Plate Reader - 2105-02_Inhibitor_Dose_CherryPick_Activity. [Related pubchem assays (depositor defined):AID504439].
The test system of a further data set is HeLa. Description: HeLa cell cytotoxicity, dose response, cytotoxicity control for MITF activator project, CellTiter-Glo luminescence, cherry-pick samples (AID 540259). The class given is functional, cell-based. Particulars: Homo sapiens.
The target of the next data set is Cytochrome P450 2D6 (Homo sapiens, UniProt P10635).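 Further: CYP2D6 member of a cytochrome P450 panel assay.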
Sequence of Cytochrome P450 2D6 (P10635 whole entry): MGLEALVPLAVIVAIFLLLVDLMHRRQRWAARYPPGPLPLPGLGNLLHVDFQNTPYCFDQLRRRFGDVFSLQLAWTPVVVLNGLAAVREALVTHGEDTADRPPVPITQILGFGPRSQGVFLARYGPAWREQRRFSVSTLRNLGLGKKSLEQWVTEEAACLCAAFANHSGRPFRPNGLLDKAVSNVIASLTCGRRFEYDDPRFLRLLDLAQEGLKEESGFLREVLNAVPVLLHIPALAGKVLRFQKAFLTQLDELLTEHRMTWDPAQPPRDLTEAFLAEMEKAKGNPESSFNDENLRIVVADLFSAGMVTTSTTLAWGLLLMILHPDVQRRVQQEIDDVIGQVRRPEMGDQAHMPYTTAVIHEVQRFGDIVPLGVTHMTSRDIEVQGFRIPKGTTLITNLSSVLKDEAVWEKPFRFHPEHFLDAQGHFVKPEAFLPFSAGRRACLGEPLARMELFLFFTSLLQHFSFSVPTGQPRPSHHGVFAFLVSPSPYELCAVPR
For data set [6], the target named is FAD-linked sulfhydryl oxidase ALR (Homo sapiens, UniProt P55789). Description: inhibitors of human ALR sulfhydryl oxidase, dose response, biochemical, H2O2 detection, luminescence, cherry-pick (AID 493248).
Sequence of FAD-linked sulfhydryl oxidase ALR (P55789 whole entry): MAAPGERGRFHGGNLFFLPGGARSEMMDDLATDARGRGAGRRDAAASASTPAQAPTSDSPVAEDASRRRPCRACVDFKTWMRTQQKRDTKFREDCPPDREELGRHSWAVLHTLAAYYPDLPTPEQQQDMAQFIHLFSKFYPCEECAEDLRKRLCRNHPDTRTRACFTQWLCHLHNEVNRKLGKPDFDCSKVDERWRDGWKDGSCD
For a further data set, the target named is Cytochrome P450 2C9 (Homo sapiens, UniProt P11712).
Sequence of Cytochrome P450 2C9 (P11712 whole entry): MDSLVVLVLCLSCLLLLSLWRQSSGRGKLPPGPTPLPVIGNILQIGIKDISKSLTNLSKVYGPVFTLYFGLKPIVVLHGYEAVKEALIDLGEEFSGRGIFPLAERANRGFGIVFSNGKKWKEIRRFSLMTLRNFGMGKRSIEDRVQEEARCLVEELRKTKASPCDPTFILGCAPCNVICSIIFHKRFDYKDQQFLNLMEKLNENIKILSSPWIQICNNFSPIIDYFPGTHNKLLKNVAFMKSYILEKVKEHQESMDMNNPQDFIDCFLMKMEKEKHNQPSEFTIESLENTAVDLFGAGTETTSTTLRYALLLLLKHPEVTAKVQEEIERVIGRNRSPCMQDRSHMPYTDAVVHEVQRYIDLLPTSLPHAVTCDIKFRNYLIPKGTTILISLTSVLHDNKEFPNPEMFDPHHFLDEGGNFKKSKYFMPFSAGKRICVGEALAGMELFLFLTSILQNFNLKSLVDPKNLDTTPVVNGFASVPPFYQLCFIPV
The target in data set [7] is Glucose-6-phosphate 1-dehydrogenase (Homo sapiens, UniProt P11413). Nature of the data set: human G6PD enzyme inhibitors, dose response, selectivity assay for P. falciparum G6PD inhibitor project, biochemical, fluorescence (AID 504792). Type of data set: functional.
Sequence of Glucose-6-phosphate 1-dehydrogenase (P11413 whole entry): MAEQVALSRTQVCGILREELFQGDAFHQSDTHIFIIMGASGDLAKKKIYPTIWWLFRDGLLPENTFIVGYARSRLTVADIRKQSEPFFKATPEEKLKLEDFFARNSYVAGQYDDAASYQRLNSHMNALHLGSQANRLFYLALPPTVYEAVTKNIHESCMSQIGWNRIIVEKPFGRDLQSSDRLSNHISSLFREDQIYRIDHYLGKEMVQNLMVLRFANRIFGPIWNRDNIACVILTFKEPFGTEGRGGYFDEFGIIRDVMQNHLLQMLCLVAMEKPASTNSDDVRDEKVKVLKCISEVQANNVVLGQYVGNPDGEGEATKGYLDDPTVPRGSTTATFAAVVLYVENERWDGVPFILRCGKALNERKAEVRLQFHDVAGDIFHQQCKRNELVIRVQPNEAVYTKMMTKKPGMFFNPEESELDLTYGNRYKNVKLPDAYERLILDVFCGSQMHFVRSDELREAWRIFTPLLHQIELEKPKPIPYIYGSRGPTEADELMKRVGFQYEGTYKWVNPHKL
Data set [8] concerns the target T6, Rac GTPase-activating protein 1 (Homo sapiens, UniProt Q9H0H5).
T6 sequence (Q9H0H5 whole entry): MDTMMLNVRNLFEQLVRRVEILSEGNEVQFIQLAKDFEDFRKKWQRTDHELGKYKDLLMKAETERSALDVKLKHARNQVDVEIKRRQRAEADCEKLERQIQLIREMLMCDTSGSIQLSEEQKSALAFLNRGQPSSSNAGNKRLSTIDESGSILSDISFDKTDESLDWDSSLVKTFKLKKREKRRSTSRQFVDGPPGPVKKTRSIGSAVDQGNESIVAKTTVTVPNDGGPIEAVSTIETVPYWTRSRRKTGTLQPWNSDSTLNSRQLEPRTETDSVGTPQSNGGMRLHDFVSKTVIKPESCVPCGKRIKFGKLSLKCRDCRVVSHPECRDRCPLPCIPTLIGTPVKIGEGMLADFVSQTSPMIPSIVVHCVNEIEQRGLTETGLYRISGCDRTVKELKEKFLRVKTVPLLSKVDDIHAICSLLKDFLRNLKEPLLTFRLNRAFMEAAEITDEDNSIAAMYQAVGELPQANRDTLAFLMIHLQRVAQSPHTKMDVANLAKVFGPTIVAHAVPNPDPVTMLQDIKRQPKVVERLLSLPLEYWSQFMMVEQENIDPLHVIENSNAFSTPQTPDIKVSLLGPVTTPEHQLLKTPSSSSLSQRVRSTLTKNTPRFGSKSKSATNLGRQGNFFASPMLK
Description: MgcRacGAP GTPase-activating activity inhibitors, confirmation, biochemical, ADP Hunter fluorescence, primary and confirmatory (AID 624330). Type of data set: functional.

Sequence of UDP-galactopyranose mutase (P9WIQ1 whole entry): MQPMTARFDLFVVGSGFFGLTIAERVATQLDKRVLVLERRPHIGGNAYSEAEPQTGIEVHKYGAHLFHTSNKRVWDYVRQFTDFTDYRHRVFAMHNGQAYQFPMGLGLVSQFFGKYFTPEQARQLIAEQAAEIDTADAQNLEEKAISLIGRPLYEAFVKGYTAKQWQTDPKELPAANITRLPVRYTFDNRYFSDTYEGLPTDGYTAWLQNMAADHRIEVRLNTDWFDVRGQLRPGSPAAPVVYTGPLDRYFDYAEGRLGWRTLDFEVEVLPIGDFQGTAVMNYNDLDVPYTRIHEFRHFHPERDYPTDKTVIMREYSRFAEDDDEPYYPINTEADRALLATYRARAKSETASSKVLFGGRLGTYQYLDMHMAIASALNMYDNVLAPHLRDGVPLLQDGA

For `CC(C)(C)c1ccc(C(=O)CSc2nnc[nH]2)cc1`, the IC50 was > 100 µM (inactive) at Phosphomannomutase 2; > 50 µM (inactive) in [1]; 46 µM (active) at Leucine aminopeptidase; 6.08 µM (active) in data set [2]; 13.2 µM (active) in data set [3].
On to `COc1ccccc1NC(=S)NC(=O)C(C)C`, for which the AC50 in the data set with Escherichia coli is 50.3 µM (active).
Turning to `N#C/C(=C\C=C\c1ccccc1)c1nc(-c2ccc3c(c2)OCO3)cs1`, the EC50 in data set [4] is 9.03 µM (active). In addition, in data set [5], the AC50 was 38.5 µM (active).
With `Cc1ccc(O)c(C(=O)c2coc(=N)c(C(=O)NC(C)C)c2)c1`, the IC50 on Leucine aminopeptidase was 4.66 µM (active). In addition, the AC50 with Escherichia coli was 23.8 µM (active).
For `O=C(c1cnn2ccccc12)N1CCc2ccccc21`, the AC50 with HeLa is 58.6 µM (active).
With `CCCC(=O)Nc1ccc(NC(=O)c2ccccn2)cn1`, the AC50 with Escherichia coli is 58.3 µM (active).
On to `O=C(NCCc1ccc(O)cc1)c1ccc(Cl)cc1`, for which the AC50 at Cytochrome P450 2D6 was 25.1 µM (inconclusive); in data set [6], 6.24 µM (active); on Cytochrome P450 2C9, “inconclusive”; with HeLa, 99 µM (active).
For `COc1ccc(OCc2cc(C(=O)NC(C)c3cnn(C)c3)no2)c(Cl)c1` (stereo not given), in the data set on HeLa, the AC50 was 79.6 µM (active).
As for `O=C1CCN(c2ccccc2)N1` [PHENIDONE], the IC50 in data set [7] was 42.1 µM (inactive); in [8] it was 46.5 µM (active).
In the case of `COc1cc(-c2nnc3n2N=C(c2ccccc2)CS3)cc(OC)c1OC`, the IC50 in data set [7] was > 80 µM (inactive).
